Data taken from ChEMBL document CHEMBL3817755, “Design, synthesis and biological evaluation of indazolepyrimidine based derivatives as anticancer agents with anti-angiogenic and antiproliferative activities” (Medchemcomm, 2016).

How the values were obtained:
Type in all cases: functional
[1] = Growth inhibition of human HL-60(TB) cells at 10 uM after 48 hrs by SRB assay; details: HL-60, 48 h, read-out: GI
K562 = experiment: Growth inhibition of human K562 cells at 10 uM after 48 hrs by SRB assay; details: K562, 48 h, read-out: GI
EKVX = experiment: Growth inhibition of human EKVX cells at 10 uM after 48 hrs by SRB assay; details: read-out: GI
[2] = Growth inhibition of human HOP92 cells at 10 uM after 48 hrs by SRB assay; details: HOP-92, 48 h, read-out: GI
NCI-H23 = experiment: Growth inhibition of human NCI-H23 cells at 10 uM after 48 hrs by SRB assay; details: NCI-H23, 48 h, read-out: GI
NCI-H460 = experiment: Growth inhibition of human NCI-H460 cells at 10 uM after 48 hrs by SRB assay; details: NCI-H460, 48 h, read-out: GI
NCI-H522 = experiment: Growth inhibition of human NCI-H522 cells at 10 uM after 48 hrs by SRB assay; details: NCI-H522, 48 h, read-out: GI
[3] = Growth inhibition of human SW620 cells at 10 uM after 48 hrs by SRB assay; details: SW-620, 48 h, read-out: GI
[4] = Growth inhibition of human SF268 cells at 10 uM after 48 hrs by SRB assay; details: SF-268, 48 h, read-out: GI
[5] = Growth inhibition of human SNB19 cells at 10 uM after 48 hrs by SRB assay; details: SNB-19, 48 h, read-out: GI
U-251 = experiment: Growth inhibition of human U251 cells at 10 uM after 48 hrs by SRB assay; details: U-251, 48 h, read-out: GI
MDA-MB-435 = experiment: Growth inhibition of human MDA-MB-435 cells at 10 uM after 48 hrs by SRB assay; details: MDA-MB-435, 48 h, read-out: GI
SK-MEL-2 = experiment: Growth inhibition of human SK-MEL-2 cells at 10 uM after 48 hrs by SRB assay; details: SK-MEL-2, 48 h, read-out: GI
[6] = Growth inhibition of human OVCAR3 cells at 10 uM after 48 hrs by SRB assay; details: OVCAR-3, 48 h, read-out: GI
[7] = Growth inhibition of human OVCAR4 cells at 10 uM after 48 hrs by SRB assay; details: OVCAR-4, 48 h, read-out: GI
T47D = experiment: Growth inhibition of human T47D cells at 10 uM after 48 hrs by SRB assay; details: read-out: GI
MDA-MB-468 = experiment: Growth inhibition of human MDA-MB-468 cells at 10 uM after 48 hrs by SRB assay; details: MDA-MB-468, 48 h, read-out: GI

Question: With Fc1ccc(Nc2nccc(Nc3ccc4[nH]ncc4c3)n2)cc1 as the molecule, how does the inhibition of growth at 10 µM [1] read?
Answer: The inhibition of growth at 10 µM was 31%.

Question: And the inhibition of growth at 10 µM (K562)?
Answer: The inhibition of growth at 10 µM was 61%.

Question: And the inhibition of growth at 10 µM (EKVX)?
Answer: Its inhibition of growth at 10 µM is 29%.

Question: What about the inhibition of growth at 10 µM [2] of the same molecule?
Answer: The inhibition of growth at 10 µM was 81%.

Question: What about the inhibition of growth at 10 µM (NCI-H23) of the same molecule?
Answer: The inhibition of growth at 10 µM was 27%.

Question: And the inhibition of growth at 10 µM (NCI-H460)?
Answer: The inhibition of growth at 10 µM was 40%.

Question: And the inhibition of growth at 10 µM (NCI-H522)?
Answer: The inhibition of growth at 10 µM was 57%.

Question: What about the inhibition of growth at 10 µM [3] of the same molecule?
Answer: The inhibition of growth at 10 µM was 31%.

Question: What about the inhibition of growth at 10 µM [4] of the same molecule?
Answer: The inhibition of growth at 10 µM was 29%.

Question: And the inhibition of growth at 10 µM [5]?
Answer: The inhibition of growth at 10 µM was 12%.

Question: What about the inhibition of growth at 10 µM (U-251) of the same molecule?
Answer: The inhibition of growth at 10 µM was 35%.

Question: What about the inhibition of growth at 10 µM (MDA-MB-435) of the same molecule?
Answer: Its inhibition of growth at 10 µM is 25%.

Question: And the inhibition of growth at 10 µM (SK-MEL-2)?
Answer: Its inhibition of growth at 10 µM is 24%.

Question: And the inhibition of growth at 10 µM [6]?
Answer: The inhibition of growth at 10 µM was 14%.

Question: What about the inhibition of growth at 10 µM [7] of the same molecule?
Answer: Its inhibition of growth at 10 µM is 27%.

Question: What about the inhibition of growth at 10 µM (T47D) of the same molecule?
Answer: Its inhibition of growth at 10 µM is 71%.

Question: What about the inhibition of growth at 10 µM (MDA-MB-468) of the same molecule?
Answer: The inhibition of growth at 10 µM was 53%.

Question: For Clc1ccc(Nc2nccc(Nc3ccc4[nH]ncc4c3)n2)cc1, which inhibition of growth at 10 µM [1] is on record?
Answer: Its inhibition of growth at 10 µM is 48%.

Question: And the inhibition of growth at 10 µM (K562)?
Answer: The inhibition of growth at 10 µM was 108%.

Question: What about the inhibition of growth at 10 µM (EKVX) of the same molecule?
Answer: The inhibition of growth at 10 µM was 33%.

Question: What about the inhibition of growth at 10 µM [2] of the same molecule?
Answer: Its inhibition of growth at 10 µM is 101%.

Question: And the inhibition of growth at 10 µM (NCI-H23)?
Answer: The inhibition of growth at 10 µM was 54%.

Question: What about the inhibition of growth at 10 µM (NCI-H460) of the same molecule?
Answer: The inhibition of growth at 10 µM was 59%.

Question: And the inhibition of growth at 10 µM (NCI-H522)?
Answer: Its inhibition of growth at 10 µM is 79%.

Question: And the inhibition of growth at 10 µM [3]?
Answer: The inhibition of growth at 10 µM was 67%.

Question: What about the inhibition of growth at 10 µM [4] of the same molecule?
Answer: The inhibition of growth at 10 µM was 40%.

Question: And the inhibition of growth at 10 µM [5]?
Answer: The inhibition of growth at 10 µM was 22%.

Question: And the inhibition of growth at 10 µM (U-251)?
Answer: Its inhibition of growth at 10 µM is 41%.

Question: What about the inhibition of growth at 10 µM (MDA-MB-435) of the same molecule?
Answer: The inhibition of growth at 10 µM was 44%.

Question: And the inhibition of growth at 10 µM [6]?
Answer: Its inhibition of growth at 10 µM is 48%.

Question: And the inhibition of growth at 10 µM [7]?
Answer: The inhibition of growth at 10 µM was 51%.

Question: And the inhibition of growth at 10 µM (T47D)?
Answer: The inhibition of growth at 10 µM was 70%.

Question: What about the inhibition of growth at 10 µM (MDA-MB-468) of the same molecule?
Answer: Its inhibition of growth at 10 µM is 66%.

Question: For NS(=O)(=O)c1ccc(Nc2nccc(Nc3ccc4[nH]ncc4c3)n2)cc1, which inhibition of growth at 10 µM [1] is on record?
Answer: Its inhibition of growth at 10 µM is 2%.

Question: And the inhibition of growth at 10 µM (K562)?
Answer: The inhibition of growth at 10 µM was 25%.

Question: And the inhibition of growth at 10 µM (EKVX)?
Answer: The inhibition of growth at 10 µM was -1%.

Question: What about the inhibition of growth at 10 µM [2] of the same molecule?
Answer: The inhibition of growth at 10 µM was 47%.

Question: And the inhibition of growth at 10 µM (NCI-H23)?
Answer: Its inhibition of growth at 10 µM is 14%.

Question: And the inhibition of growth at 10 µM (NCI-H460)?
Answer: The inhibition of growth at 10 µM was 1%.

Question: And the inhibition of growth at 10 µM (NCI-H522)?
Answer: The inhibition of growth at 10 µM was 57%.

Question: What about the inhibition of growth at 10 µM [3] of the same molecule?
Answer: Its inhibition of growth at 10 µM is -11%.

Question: And the inhibition of growth at 10 µM [4]?
Answer: The inhibition of growth at 10 µM was 12%.

Question: And the inhibition of growth at 10 µM [5]?
Answer: Its inhibition of growth at 10 µM is 4%.

Question: What about the inhibition of growth at 10 µM (U-251) of the same molecule?
Answer: Its inhibition of growth at 10 µM is 19%.

Question: What about the inhibition of growth at 10 µM (MDA-MB-435) of the same molecule?
Answer: Its inhibition of growth at 10 µM is 1%.

Question: What about the inhibition of growth at 10 µM (SK-MEL-2) of the same molecule?
Answer: The inhibition of growth at 10 µM was 4%.

Question: And the inhibition of growth at 10 µM [6]?
Answer: Its inhibition of growth at 10 µM is -10%.

Question: What about the inhibition of growth at 10 µM [7] of the same molecule?
Answer: Its inhibition of growth at 10 µM is -12%.

Question: And the inhibition of growth at 10 µM (T47D)?
Answer: Its inhibition of growth at 10 µM is 50%.

Question: And the inhibition of growth at 10 µM (MDA-MB-468)?
Answer: Its inhibition of growth at 10 µM is 36%.
